Molecules are shown by their SMILES.

The subject of test [1] is MCF7 (human breast cancer cell line). Kind of test: MTT cytotoxicity assay, MCF7. The format is cell-based. As to conditions: MCF7, 24 h, read-out: MCF7 (% inhibition ±SD). (Tetrazolium assays rely on reduction of a dye to a coloured formazan, in cell work by metabolically active cells.)
A further test deals with T1, ENPP1 (Homo sapiens, UniProt P22413).
T1 sequence (P22413 1-925): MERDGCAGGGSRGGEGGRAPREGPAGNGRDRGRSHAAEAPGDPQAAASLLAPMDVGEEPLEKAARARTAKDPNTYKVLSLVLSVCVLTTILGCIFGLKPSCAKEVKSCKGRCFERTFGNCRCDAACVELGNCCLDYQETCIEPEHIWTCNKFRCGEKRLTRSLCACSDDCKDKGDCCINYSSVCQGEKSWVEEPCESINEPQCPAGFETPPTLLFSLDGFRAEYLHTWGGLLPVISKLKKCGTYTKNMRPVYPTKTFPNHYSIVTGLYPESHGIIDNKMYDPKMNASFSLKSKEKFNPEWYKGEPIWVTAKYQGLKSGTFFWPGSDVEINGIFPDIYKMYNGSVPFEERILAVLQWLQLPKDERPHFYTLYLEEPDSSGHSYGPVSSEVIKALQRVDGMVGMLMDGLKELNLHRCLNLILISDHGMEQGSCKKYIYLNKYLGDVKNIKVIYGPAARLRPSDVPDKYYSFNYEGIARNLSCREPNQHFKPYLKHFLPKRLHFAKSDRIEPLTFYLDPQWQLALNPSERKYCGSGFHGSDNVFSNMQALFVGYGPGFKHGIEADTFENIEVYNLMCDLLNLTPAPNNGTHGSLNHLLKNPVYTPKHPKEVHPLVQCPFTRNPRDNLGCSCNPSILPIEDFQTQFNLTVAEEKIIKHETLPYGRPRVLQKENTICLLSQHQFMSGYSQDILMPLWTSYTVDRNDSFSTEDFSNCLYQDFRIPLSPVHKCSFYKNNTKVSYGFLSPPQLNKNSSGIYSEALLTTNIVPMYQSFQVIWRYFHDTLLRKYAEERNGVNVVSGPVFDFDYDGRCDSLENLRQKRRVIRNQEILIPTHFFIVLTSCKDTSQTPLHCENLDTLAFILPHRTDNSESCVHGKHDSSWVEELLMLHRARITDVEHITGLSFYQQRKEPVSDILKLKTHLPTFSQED
The test is described as follows: ENPP1 enzyme inhibition assay. Type of test: biochemical. The conditions noted are these: for inhibition at 100 µM: read-out: ENPP1 % inhibition ± SD.

Test [2] relates to HEK293 (human embryonic kidney cell line). Kind of test: MTT cytotoxicity assay, HEK293. Type of test: cell-based. The conditions noted are these: Homo sapiens, HEK293, 24 h, read-out: HEK293 (% inhibition ±SD).
The next test concerns the target T2, ENPP3 (Homo sapiens, UniProt O14638).
T2 sequence (O14638 1-875): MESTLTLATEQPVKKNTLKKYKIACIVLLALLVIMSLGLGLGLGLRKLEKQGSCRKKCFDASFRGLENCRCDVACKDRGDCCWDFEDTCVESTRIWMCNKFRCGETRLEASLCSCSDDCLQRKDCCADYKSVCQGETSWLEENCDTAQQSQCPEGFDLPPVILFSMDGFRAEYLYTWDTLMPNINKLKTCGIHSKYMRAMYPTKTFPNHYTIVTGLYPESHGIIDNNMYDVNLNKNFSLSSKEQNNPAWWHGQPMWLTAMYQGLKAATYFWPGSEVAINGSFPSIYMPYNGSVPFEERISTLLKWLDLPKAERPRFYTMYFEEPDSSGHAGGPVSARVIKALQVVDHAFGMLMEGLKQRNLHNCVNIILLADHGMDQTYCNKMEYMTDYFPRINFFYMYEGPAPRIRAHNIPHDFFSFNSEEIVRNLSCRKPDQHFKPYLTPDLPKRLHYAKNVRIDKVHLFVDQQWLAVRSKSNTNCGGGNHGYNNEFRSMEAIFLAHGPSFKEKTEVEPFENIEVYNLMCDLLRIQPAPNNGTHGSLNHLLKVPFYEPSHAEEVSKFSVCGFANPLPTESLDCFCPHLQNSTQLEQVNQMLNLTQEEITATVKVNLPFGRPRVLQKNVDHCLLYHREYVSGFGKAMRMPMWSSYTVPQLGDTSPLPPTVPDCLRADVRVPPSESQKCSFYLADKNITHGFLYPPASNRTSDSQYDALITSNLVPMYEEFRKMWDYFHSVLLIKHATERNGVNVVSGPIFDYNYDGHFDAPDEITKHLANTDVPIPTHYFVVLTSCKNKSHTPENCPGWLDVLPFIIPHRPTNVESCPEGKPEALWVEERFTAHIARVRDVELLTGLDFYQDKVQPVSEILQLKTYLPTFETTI
Kind of test: ENPP3 enzyme inhibition assay. Type of test: biochemical. The conditions noted are these: for inhibition at 100 µM: read-out: ENPP3 % inhibition ± SD.

A word on the inhibition: it is the share of the control response that was lost under treatment. For the compound `Cc1ccc(C(=O)Nc2ccc(OS(=O)(=O)c3ccc(C)cc3)cc2)cc1` [4a, 4-(4-Methylbenzamido)phenyl 4-Methylbenzenesulfonate], the inhibition at 100 µM in test [1] amounted to 1.1 ± 0.12%; on ENPP1, 26.2 ± 2.11%; in test [2], 5.3 ± 0.81%; on ENPP3, 17 ± 3.24%.
As a reminder, the IC50 is the midpoint of a concentration-inhibition curve. A high value points to weaker potency in that assay. Consider `Cc1ccc(C(=O)Nc2ccc(OS(=O)(=O)c3ccccc3)cc2)cc1` [4b, 4-(4-methylbenzamido)phenyl Benzenesulfonate], for which the values for the inhibition at 100 µM (in test [1]; on ENPP1; in test [2]) were 7.4 ± 0.04%, 45.2 ± 1.53% and 6.4 ± 0.22%, respectively. This compound also yielded an IC50 against ENPP3 of 29.8 ± 2.13 µM.
As to `Cc1ccc(C(=O)Nc2ccc(OS(=O)(=O)c3ccc(I)cc3)cc2)cc1` [4c, 4-(4-methylbenzamido)phenyl 4-Iodobenzenesulfonate], the inhibition at 100 µM in test [1] is 33.2 ± 1.32%; in test [2], 15.2 ± 0.83%. Moreover, the 50% inhibitory concentration (IC50) at ENPP1 was found to be 14.4 ± 0.54 µM; at ENPP3, 4.23 ± 0.38 µM.
For the compound `COc1ccc(S(=O)(=O)Oc2ccc(NC(=O)c3ccc(C)cc3)cc2)cc1` [4d, 4-(4-Methylbenzamido)phenyl 4-Methoxybenzenesulfonate], the inhibition at 100 µM in test [1] was found to be 31.5 ± 2.43%; in test [2] it was 13.1 ± 0.73%; at ENPP3, 45.7 ± 2.35%. Also, on ENPP1, the IC50 came out at 0.18 ± 0.01 µM.
Take `Cc1ccc(C(=O)Nc2ccc(OS(=O)(=O)c3ccc(Cl)cc3)cc2)cc1` [4e, 4-(4-Methylbenzamido)phenyl 4-Chlorobenzenesulfonate]: the inhibition at 100 µM in test [1] worked out at 24.2 ± 1.73%; on ENPP1, 44.8 ± 1.52%; in test [2], 8.3 ± 0.35%. Besides, the IC50 against ENPP3 is 0.82 ± 0.12 µM.
Take `CCCc1ccc(S(=O)(=O)Oc2ccc(NC(=O)c3ccc(C)cc3)cc2)cc1` [4f, 4-(4-Methylbenzamido)phenyl 4-Propylbenzenesulfonate]: the inhibition at 100 µM in test [1] came out at 25.7 ± 0.92%; in test [2] it was 4.2 ± 0.12%; at ENPP3, 8.4 ± 3.11%.
For the compound `Cc1ccc(C(=O)Nc2ccc(OS(=O)(=O)c3ccc(OC(F)(F)F)cc3)cc2)cc1` [4g, 4-(4-Methylbenzamido)phenyl 4-(Trifluoromethoxy)benzenesulfonate], the inhibition at 100 µM in test [1] is 11.7 ± 0.84%; in test [2], 3.2 ± 0.11%. Moreover, the IC50 against ENPP1 worked out at 0.45 ± 0.07 µM; against ENPP3 it was 0.19 ± 0.02 µM.
As to `Cc1ccc(C(=O)Nc2ccc(OS(=O)(=O)c3ccc(-c4ccccc4)cc3)cc2)cc1` [4h, 4-(4-Methylbenzamido)phenyl [1,1′-Biphenyl]-4-sulfonate], the inhibition at 100 µM in test [1] amounted to 9.1 ± 0.71%; in test [2] it was 4.8 ± 0.24%; on ENPP3, 27.1 ± 4.54%. At ENPP1, this compound yielded an IC50 of 1.73 ± 0.03 µM.
As to `Cc1ccc(C(=O)Nc2ccc(OS(=O)(=O)Cc3ccccc3)cc2)cc1` [4i, 4-(4-Methylbenzamido)phenyl Phenylmethanesulfonate], the inhibition at 100 µM in test [1] is 5.7 ± 0.06%; in test [2], 11.2 ± 0.92%; on ENPP3 it was 46.7 ± 1.54%. On ENPP1, this compound showed an IC50 of 0.13 ± 0.01 µM.
Take `Cc1ccc(C(=O)Nc2ccc(OS(=O)(=O)c3ccc(F)cc3)cc2)cc1` [4k, 4-(4-Methylbenzamido)phenyl 4-Fluorobenzenesulfonate]: the inhibition at 100 µM in test [1] was 11.2 ± 0.52%; in test [2], 2.1 ± 1.22%. Moreover, the IC50 against ENPP1 came out at 7.61 ± 0.02 µM; against ENPP3 it was 0.37 ± 0.08 µM.
For `Cc1ccc(C(=O)Nc2ccc(OS(=O)(=O)c3ccccc3F)cc2)cc1` [4l, 4-(4-Methylbenzamido)phenyl 2-Fluorobenzenesulfonate], in that order: 0.5 ± 0.03%, 17.4 ± 0.83%, 0.15 ± 0.01 µM and 3.48 ± 0.34 µM.
On to `COc1ccc(S(=O)(=O)Oc2ccc(NC(=O)c3ccccc3)cc2)cc1` [4m, 4-Benzamidophenyl 4-Methoxybenzenesulfonate], for which the inhibition at 100 µM came to 4.1 ± 0.01% in test [1], 2.3 ± 1.12% in test [2] and 22.6 ± 2.12% at ENPP3. At ENPP1, this compound came in with a half-inhibitory concentration (IC50) of 0.82 ± 0.05 µM.
For `O=C(Nc1ccc(OS(=O)(=O)Cc2ccccc2)cc1)c1ccccc1` [4n, 4-Benzamidophenyl Phenylmethanesulfonate], the inhibition at 100 µM in test [1] was 7.3 ± 0.03%; in test [2] it was 5.8 ± 0.23%. For the same compound, the IC50 at ENPP1 stood at 3.96 ± 0.12 µM; against ENPP3 it was 4.12 ± 0.05 µM.
As to `CCCc1ccc(S(=O)(=O)Oc2ccc(NC(=O)c3ccccc3)cc2)cc1` [4o, 4-Benzamidophenyl 4-Propylbenzenesulfonate], the figures for the inhibition at 100 µM in test [1] and in test [2] were 63.2 ± 2.51% and 12.6 ± 0.74%, respectively. Also, the half-inhibitory concentration (IC50) against ENPP1 was found to be 1.71 ± 0.04 µM; on ENPP3 it was 2.12 ± 0.08 µM.
In the case of `O=C(Nc1ccc(OS(=O)(=O)c2ccc(-c3ccccc3)cc2)cc1)c1ccccc1` [4p, 4-Benzamidophenyl [1,1′-Biphenyl]-4-sulfonate], the inhibition at 100 µM in test [1] is 8.4 ± 0.75%; in test [2], 4.3 ± 0.15%; on ENPP3 it was 33.5 ± 1.92%. This compound also registered an IC50 on ENPP1 of 1.51 ± 0.02 µM.
For `O=C(Nc1ccc(OS(=O)(=O)c2cccc3cccnc23)cc1)c1ccccc1` [4q, 4-Benzamidophenyl Quinoline-8-sulfonate], in that order: 11.2 ± 1.04%, 4.6 ± 0.32%, 19.5 ± 3.53% and 0.37 ± 0.03 µM.
On to `O=C(Nc1ccc(OS(=O)(=O)c2ccc(I)cc2)cc1)c1ccccc1` [4r, 4-Benzamidophenyl 4-Iodobenzenesulfonate], for which the inhibition at 100 µM in test [1] is 10.2 ± 0.86%; in test [2], 11.3 ± 0.71%. Moreover, the IC50 on ENPP1 came out at 2.01 ± 0.34 µM; against ENPP3, 0.53 ± 0.19 µM.
For `O=C(Nc1ccc(OS(=O)(=O)c2ccc(F)cc2)cc1)c1ccccc1` [4s, 4-Benzamidophenyl 4-Fluorobenzenesulfonate], in that order: 2.1 ± 0.08%, 20.6 ± 1.14%, 5.76 ± 0.57 µM and 2.95 ± 0.25 µM.
Take `O=C(Nc1ccc(OS(=O)(=O)c2ccc(OC(F)(F)F)cc2)cc1)c1ccccc1` [4t, 4-Benzamidophenyl 4-(trifluoromethoxy)benzenesulfonate]: the inhibition at 100 µM in test [1] is 29.6 ± 1.22%; at ENPP1, 41.4 ± 3.24%; in test [2], 8.6 ± 0.14%. Moreover, the IC50 against ENPP3 is 0.15 ± 0.04 µM.
For `CC1(C(=O)Nc2ccc(OS(=O)(=O)c3ccccc3F)cc2)c2ccccc2-c2ccccc21` [7a, 4-(9-Methyl-9H-fluorene-9-carboxamido)phenyl 2-Fluorobenzenesulfonate], the inhibition at 100 µM in test [1] was found to be 12.7 ± 0.62%; in test [2], 14.6 ± 1.12%; on ENPP3, 28.2 ± 3.22%. The same compound had an IC50 at ENPP1 of 0.81 ± 0.05 µM.
Turning to `CC1(C(=O)Nc2ccc(OS(=O)(=O)C(F)(F)F)cc2)c2ccccc2-c2ccccc21` [7b, 4-(9-Methyl-9H-fluorene-9-carboxamido)phenyl Trifluoromethanesulfonate], the inhibition at 100 µM was determined as 14.1 ± 0.63% in test [1] and 24.5 ± 1.16% in test [2]. Also, the IC50 amounted to 0.9 ± 0.16 µM against ENPP1 and 4.16 ± 0.22 µM against ENPP3.
Regarding `COc1cccc2c1C(=O)c1c(O)c3c(c(O)c1C2=O)C[C@@](O)(C(=O)CO)C[C@@H]3O[C@H]1C[C@H](N)[C@H](O)[C@H](C)O1` [doxorubicin, reference compound], in test [1], the inhibition at 100 µM was 88.8 ± 2.74%.

These data come from article PMC9352230 (ACS Omega, 2022).
